Source: patent publication US20080318892A1, “METHODS AND FORMULATIONS FOR PROTECTING CELLS, AND FOR TREATING DISEASES AND CONDITIONS BY OPTIMIZING THE INTRACELLULAR CONCENTRATION OF NAD” (priority 2007, published 2008)

Experiments:
[1] = test system: SIRT1; test: Western blot of SIRT1 protein expression in SMCs; format: cell-based, human; conditions: PBEF overexpression; p=0.02
Description: Western Blot and Immunoprecipitation Analysis. Protein expression was assessed by Western blot analysis with chemiluminescence detection, as previously described (Rocnik, 2002). PBEF was detected using a rabbit polyclonal anti-human PBEF/Pre-B-cell colony enhancing factor antibody (Bethyl Laboratories, Montgomery, Tex.). SIRT1 was detected using a rabbit polyclonal anti-SIRT1 antibody (Abcam, Cambridge, Mass.) and p53 and α-tubulin were detected with monoclonal antibodies (CO-1, Santa Cruz, Calif. and Clone B-5-1-1, Sigma, Oakville, ON, respectively). Cytoplasmic p53 was similarly assessed following cell fractionation (NucBuster, Novagen Minneapolis, Minn.). Identification of p53 that underwent NAD^+-dependent removal of an acetyl group on residue K382 was determined by pretreating SMCs for 2 h with 5 μM trichostatin A (TSA), immunoprecipitating p53 from the cell lysate with a goat polyclonal antibody (R&D Systems, Minneapolis, Minn.), and immunoblotting using a rabbit polyclonal anti-acetylated p53 (K382) antibody (American Proteomics, Carlsbad, Calif.) and HRP-labelled donkey anti-rabbit IgG antibody (Amersham, Piscataway, N.J.).
Western Blot Analysis. Protein expression was assessed by Western blot analysis of confluent cultured SMCs, as previously described (Rocnik et al., 2002). […] Signal was detected by chemiluminescence (Pierce, Rockford, Ill., USA).

[2] = test system: HITB5 SMC's; test: SMC proliferation (cell accumulation over 11 days); format: cell-based, human; conditions: PBEF-overexpressing HITB5 SMCs, 5% serum, p<0.01 vs EGFP control
Description: Cell Proliferation, DNA Synthesis, and Apoptosis were also evaluated. To assess SMC proliferation, cells were plated at a density of 3000 cells per cm^2 and cultured in M199 containing 5% FBS. Triplicate wells were harvested at the designated times and counted using a hemacytometer. To quantify DNA synthesis, cells in log-phase growth were incubated for 12 hours with [^3H]thymidine (10 μCi/mL) and TCA-precipitable counts determined as described (5). Thymidine incorporation was expressed relative to DNA content, quantified by spectrofluorimetry of an aliquot of cell lysate incubated with 500 μg/ml Hoechst 33258. Apoptosis was assessed in SMCs seeded on glass coverslips by in situ end-labeling of DNA fragments using terminal deoxynucleotide transferase and fluorescein 12-dUTP (Promega) (5). Cells were fixed with 4% paraformaldehyde and counterstained with Hoechst 33258.

[3] = test system: primary human vascular SMCs; test: Replicative lifespan (cumulative population doublings) of primary SMCs; format: cell-based; conditions: primary adult SMCs overexpressing Nampt

For “PBEF: 52-55 kD protein, rate-limiting enzyme for NAD+ biosynthesis from nicotinamide; tested by retroviral cDNA overexpression in cells”, the “abundance of SIRT1 protein” value [1] was 1.3±0.3 fold, the doubling time [2] was 5.4 days and the “additional population doublings beyond vector-infected SMCs” value [3] was 2.1±0.3 population doublings. The prolongation of lifespan ([3]; p=0.01) was 34±4%.
